Source: ChEMBL document CHEMBL5316307, “Searching for Novel Noncovalent Nuclear Export Inhibitors through a Drug Repurposing Approach” (J Med Chem, 2023)
Active and inactive are the calls of the source. The calls are words filed in the database; no cut-off is given here.

How the values were obtained:
[1] = Stability of the compound at 100 uM in presence of DTT; assay type: physicochemical
[2] = system: HGC-27; assay: Cytotoxicity against human HGC-27 cells assessed as inhibition of cell growth incubated for 72 hrs by SRB assay; assay type: functional, cell-based; conditions: HGC-27, 72 h
[3] = target: T1, Exportin-1 (Homo sapiens, UniProt O14980); assay: Binding affinity to CRM1 in human HeLa cells assessed as thermal stabilization at 100 uM at 4 to 90 degreeC incubated for 3 mins by […] analysis; assay type: cell-based
T1 sequence (O14980 whole entry): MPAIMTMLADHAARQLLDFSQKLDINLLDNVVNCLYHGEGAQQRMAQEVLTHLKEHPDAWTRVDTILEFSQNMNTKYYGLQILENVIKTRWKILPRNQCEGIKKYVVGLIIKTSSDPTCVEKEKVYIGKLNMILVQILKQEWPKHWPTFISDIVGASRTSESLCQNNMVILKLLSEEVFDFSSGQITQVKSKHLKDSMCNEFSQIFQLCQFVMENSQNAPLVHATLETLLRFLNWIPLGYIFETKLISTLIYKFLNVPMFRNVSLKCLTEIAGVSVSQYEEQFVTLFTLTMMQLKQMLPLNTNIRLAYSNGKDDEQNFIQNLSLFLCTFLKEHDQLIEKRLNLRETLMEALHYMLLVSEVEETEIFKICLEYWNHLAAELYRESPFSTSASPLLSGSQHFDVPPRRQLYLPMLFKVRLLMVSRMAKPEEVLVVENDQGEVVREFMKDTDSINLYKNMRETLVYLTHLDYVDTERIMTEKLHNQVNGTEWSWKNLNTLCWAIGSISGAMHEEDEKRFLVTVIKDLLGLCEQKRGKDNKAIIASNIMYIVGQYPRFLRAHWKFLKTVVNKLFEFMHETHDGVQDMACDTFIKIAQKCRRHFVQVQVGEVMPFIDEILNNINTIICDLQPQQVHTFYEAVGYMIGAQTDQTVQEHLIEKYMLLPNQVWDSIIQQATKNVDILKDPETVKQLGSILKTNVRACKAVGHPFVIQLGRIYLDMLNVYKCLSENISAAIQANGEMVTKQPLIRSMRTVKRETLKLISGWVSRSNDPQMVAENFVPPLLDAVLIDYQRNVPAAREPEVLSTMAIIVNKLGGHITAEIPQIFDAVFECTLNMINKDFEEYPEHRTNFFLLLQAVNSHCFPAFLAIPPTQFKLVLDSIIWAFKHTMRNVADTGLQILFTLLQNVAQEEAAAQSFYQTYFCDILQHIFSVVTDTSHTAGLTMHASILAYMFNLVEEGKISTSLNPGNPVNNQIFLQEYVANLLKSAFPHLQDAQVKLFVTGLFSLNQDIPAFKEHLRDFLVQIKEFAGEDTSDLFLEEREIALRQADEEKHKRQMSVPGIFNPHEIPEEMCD

[4] = target: T1, Exportin-1; assay: Inhibition of human CRM1 at 50 uM by GST-NES MVM based pulldown assay
[5] = target: T1, Exportin-1; assay: Inhibition of human CRM1 at 3 to 30 uM by GST-NES MVM based pulldown assay; conditions: dose 3-30 µM
[6] = target: T1, Exportin-1; assay: Non-covalent inhibition of human CRM1 at 100 uM by GST-NES MVM based pulldown assay
[7] = system: Exportin-1 (Homo sapiens), O14980 [C528S]; assay: Inhibition of human CRM1 C7 fragment C528S mutant at 50 to 100 uM by GST-NES MVM based pulldown assay; conditions: dose 50-100 µM
Chain of Exportin-1 (Homo sapiens), O14980 [C528S] (O14980 whole entry C528S, the tested form may be a part): as the sequence (O14980 whole entry) above, with C528S counted along it

[8] = system: MGC-803; assay: Cytotoxicity against human MGC-803 cells assessed as inhibition of cell growth at 50 uM incubated for 72 hrs by SRB assay; assay type: functional, cell-based
[9] = target: T1, Exportin-1; assay: Inhibition of CRM1 in semi-permeabilized human HeLa cells transfected with GFP-NES-NLS fusion plasmid assessed as inhibition of nuclear export of cargoes at 50 to 100 uM incubated for 30 mins by immunostaining analysis; assay type: cell-based; conditions: dose 50-100 µM
[10] = system: HepG2; assay: Cytotoxicity against human HepG2 cells assessed as inhibition of cell growth at 50 uM incubated for 72 hrs by SRB assay; assay type: functional, cell-based
[11] = system: MDA-MB-453; assay: Synergistic cytotoxicity against human MDA-MB-453 cells assessed as combination index at 100 uM incubated for 3 days in presence of 90 nM doxorubicin by SRB assay; assay type: functional; conditions: time 3 day
[12] = system: SW480; assay: Cytotoxicity against human SW480 cells assessed as inhibition of cell growth at 50 uM incubated for 72 hrs by SRB assay; assay type: functional, cell-based
[13] = target: T1, Exportin-1; assay: Binding affinity to NES groove of human CRM1 C7 fragment at 50 to 100 uM by GST-NES MVM based pulldown assay; conditions: dose 50-100 µM
[14] = system: Ishikawa; assay: Cytotoxicity against human Ishikawa cells assessed as inhibition of cell growth at 50 uM incubated for 72 hrs by SRB assay; assay type: functional, cell-based
[15] = system: MDA-MB-453; assay: Cytotoxicity against human MDA-MB-453 cells assessed as inhibition of cell growth at 50 uM incubated for 72 hrs by SRB assay; assay type: functional, cell-based
[16] = target: T1, Exportin-1; assay: Competitive inhibition of human CRM1 assessed as dissociation constant incubated in presence of RanGTP and IAF-conjugated protein kinase inhibitor peptide by MST assay
[17] = system: MDA-MB-453; assay: Synergistic cytotoxicity against human MDA-MB-453 cells assessed as combination index at 100 uM incubated for 3 days in presence of 270 nM doxorubicin by SRB assay; assay type: functional; conditions: time 3 day
[18] = system: HeLa; assay: Cytotoxicity against human HeLa cells assessed as inhibition of cell growth at 50 uM incubated for 72 hrs by SRB assay; assay type: functional, cell-based
[19] = system: MDA-MB-453; assay: Synergistic cytotoxicity against human MDA-MB-453 cells assessed as combination index at 100 uM incubated for 3 days in presence of 10 nM doxorubicin by SRB assay; assay type: functional; conditions: time 3 day
[20] = system: MDA-MB-453; assay: Synergistic cytotoxicity against human MDA-MB-453 cells assessed as combination index at 100 uM incubated for 3 days in presence of 810 nM doxorubicin by SRB assay; assay type: functional; conditions: time 3 day
[21] = system: PANC-1; assay: Cytotoxicity against human PANC-1 cells assessed as inhibition of cell growth at 50 uM incubated for 72 hrs by SRB assay; assay type: functional, cell-based
[22] = system: MDA-MB-453; assay: Synergistic cytotoxicity against human MDA-MB-453 cells assessed as combination index at 100 uM incubated for 3 days in presence of 30 nM doxorubicin by SRB assay; assay type: functional; conditions: time 3 day
[23] = target: T1, Exportin-1; assay: Inhibition of CRM1 in intact human HeLa cells transfected with GFP-NES-NLS fusion plasmid assessed as inhibition of nuclear export of cargoes at 200 uM incubated for 30 mins by immunostaining analysis; assay type: cell-based
[24] = system: A2780; assay: Cytotoxicity against human A2780 cells assessed as inhibition of cell growth at 50 uM incubated for 72 hrs by SRB assay; assay type: functional, cell-based

## CC(C)CCNC/C=C/[S+]([O-])c1cc(C(F)(F)F)cc(C(F)(F)F)c1 (stereo unspecified)
[1]
  Stability: Unstable

## COc1cc(C(=O)N(C)S(=O)(=O)c2ccccc2C)ccc1Cc1cn(C)c2ccc(NC(=O)OC3CCCC3)cc12
[2]
  IC50: 285 µM
[3]
  Activity: inactive
[4]
  inhibition: inactive
[4]; tested as the 2H-labelled form
  inhibition: inactive

## [2H]C([2H])([2H])N(C(=O)c1ccc(Cc2cn(C)c3ccc(NC(=O)OC4CCCC4)cc23)c(OC)c1)S(=O)(=O)c1ccccc1C
[2]
  IC50: 457 µM

## COC(=O)Nc1ccc2c(c1)c(Cc1ccc(C(=O)NS(=O)(=O)c3ccccc3C)cc1OC)cn2C
[2]
  IC50: 44 µM
[5]
  inhibition: Active

## COc1cc(C(=O)NS(=O)(=O)c2cccc(C)c2)ccc1Cc1cn(C)c2ccc(NC(=O)OC3CCCC3)cc12
[2]
  IC50: 44 µM
[5]
  inhibition: Active

## COc1cc(C(=O)NS(=O)(=O)c2ccc(C)cc2)ccc1Cc1cn(C)c2ccc(NC(=O)OC3CCCC3)cc12
[2]
  IC50: 44 µM

## CC(O)(CS(=O)(=O)c1ccc(F)cc1)C(=O)Nc1ccc(C#N)c(C(F)(F)F)c1 (stereo unspecified)
[6]
  inhibition: inactive

## N[C@@H](CC(=O)N1CCn2c(nnc2C(F)(F)F)C1)Cc1cc(F)c(F)cc1F
[6]
  inhibition: inactive

## O=C(/C=C\n1cnc(-c2cc(C(F)(F)F)cc(C(F)(F)F)c2)n1)NNc1cnccn1
[7]
  inhibition: Active

## COc1cc(C(=O)NS(=O)(=O)c2ccccc2C)ccc1Cc1cn(C)c2ccc(NC(=O)OC3CCCC3)cc12 [ZAFIRLUKAST]
[8]
  inhibition: Active
[9]
  inhibition: Active
[10]
  inhibition: Active
[2]
  IC50: 44 µM
[1]
  Stability: Stable
[3]
  Activity: Active
[11]
  CI: 0.78
[12]
  inhibition: Active
[13]
  Activity: Active
[14]
  inhibition: Active
[15]
  inhibition: Active
[16]
  Kd: 10 µM
[17]
  CI: 0.88
[18]
  inhibition: Active
[19]
  CI: 0.78
[20]
  CI: 0.58
[21]
  inhibition: Active
[22]
  CI: 0.78
[23]
  inhibition: Active
[6]
  inhibition: Active
[7]
  inhibition: inactive
[24]
  inhibition: Active
